Five compounds from article PMC9861858, “Stereoselective Synthesis and Antiproliferative Activities of Tetrafunctional Diterpene Steviol Derivatives” (International Journal of Molecular Sciences, 2023) can be followed below.

Converted amounts (≈) assume the structure as drawn. “Also recorded” adds a separate entry of the source. Where only a bound is given, the exact number is not on record here.

What is called inhibition is the change of the read-out against control, counted positive when it falls. A word on the kinetic solubility: it is solubility judged after dilution from a stock solution rather than from solid. What is called melting point is the temperature, or range, at which the solid turns liquid.

Data set [1] is described as follows: Intestinal-specific parallel artificial membrane permeability assay (PAMPA-GI). Format: in vitro ADME. Particulars: for Papp at 4 h, 500 µM: PAMPA, read-out: PAMPA-GI Pe; for Papp at 4 h, 500 µM / PAMPA-GI MR (membrane retention): gradient pH system (pH donor 6.5 → pH acceptor 7.4) after 4 h, at 37 °C, mean ± S.E.M, n = 3; for Intestinal-specific permeability (Pe), category in words: PAMPA-GI. The essentials:
(§1)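 Kinetic solubility: filtrates quantified by HPLC-DAD-MS against 5–500 μM calibration, target concentration 500 μM. PAMPA-GI: pH 6.5 phosphate donor, pH 7.4 PBS/5% DMSO acceptor, phosphatidylcholine/cholesterol 2:1 in dodecane membrane, 4 h at 37 °C; Pe and membrane retention calculated from HPLC-DAD-MS concentrations.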
A general note: In PAMPA a lipid-coated filter parts donor from acceptor wells.

The subject of data set [2] is SiHa cells. Put plainly: MTT antiproliferative assay, SiHa. Particulars: for inhibition at 10 µM / inhibition at 30 µM: Homo sapiens, SiHa, 72 h, values <20% considered negligible, read-out: Growth inhibition (%) ± SEM, SiHa. It counts as cell-based, human. The essentials: (§2)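 Antiproliferative effect is expressed as growth inhibition from an MTT assay after cancer cells were incubated 72 h with either 10 μM or 30 μM compound.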
For orientation: Tetrazolium assays rely on reduction of a dye to a coloured formazan, in cell work by metabolically active cells.

Data set [3] concerns MCF-7 cells. Kind of data set: MTT antiproliferative assay, MCF-7. Format: cell-based, human. Particulars: for inhibition at 10 µM / inhibition at 30 µM: Homo sapiens, 72 h, values <20% considered negligible, read-out: Growth inhibition (%) ± SEM, MCF-7; for inhibition at 10 µM: MCF7, 10 μM; for inhibition at 30 µM: MCF7, 30 μM; for Antiproliferative effect / selectivity on MCF-7, in words: 10 and 30 μM. A digest of the protocol:
as §2

Data set [4] concerns A2780 cells. Put plainly: MTT antiproliferative assay, A2780. It counts as cell-based, human. Particulars: for inhibition at 10 µM / inhibition at 30 µM: Homo sapiens, 72 h, values <20% considered negligible, read-out: Growth inhibition (%) ± SEM, A2780; for inhibition at 10 µM: A2780, 10 μM; for inhibition at 30 µM: A2780, 30 μM. The essentials: as §2
In data set [5] the test system is HeLa cells. Put plainly: MTT antiproliferative assay, HeLa. Format: cell-based, human. Particulars: for inhibition at 10 µM / inhibition at 30 µM: Homo sapiens, HeLa, 72 h, values <20% considered negligible, read-out: Growth inhibition (%) ± SEM, HeLa; for Antiproliferative effect on HeLa, in words: 10 and 30 μM. The essentials:
as §2

Data set [6] can be described thus: Kinetic aqueous solubility. To be noted: for solubility kinetic at 2 h: phosphate buffered saline with 5% DMSO, aqueous with cosolvent or surfactant or cyclodextrin, kinetic from dmso stock, after 2 h, at 37 °C in PBS, pH 7.4, 5% DMSO, target concentration 500 μM, mean ± S.E.M, n = 3; for Kinetic aqueous solubility, category in words: PBS pH 7.4, 37 °C, 2 h. It counts as physicochemical. The essentials: as §1

In data set [7] the test system is MDA-MB-231 cells. Kind of data set: MTT antiproliferative assay, MDA-MB-231. Particulars: for inhibition at 10 µM / inhibition at 30 µM: Homo sapiens, 72 h, values <20% considered negligible, read-out: Growth inhibition (%) ± SEM, MDA-MB-231; for inhibition at 10 µM: MDA-MB-231, 10 μM; for inhibition at 30 µM: MDA-MB-231, 30 μM; for Antiproliferative effect / selectivity on MDA-MB-231, in words: 10 and 30 μM. It counts as cell-based, human. A digest of the protocol: as §2

As to `COC(=O)[C@]1(C)CCC[C@@]2(C)C3CC[C@]4(O)C[C@@]3(CCC21)[C@@H](O)[C@]4(O)CNCc1ccccc1` (stereo partly drawn) [Compound 5, (4R,6aR,7R,8R,9S,11bS)-Methyl 8-((Benzylamino)methyl)-7,8,9-trihydroxy-4,11b-dimethyltetradecahydro-6a,9-methanocyclohepta[a]naphthalene-4-carboxylate], the melting point was 119 to 122 °C. For the same compound, in data set [1], the Papp at 4 h, 500 µM is 0.64 ± 0.03 ×10⁻⁶ cm/s and the “PAMPA-GI MR (membrane retention)” value was 29.8 ± 0.3%. In addition, in data set [2], the inhibition at 10 µM was under 20% and the inhibition at 30 µM is under 20%. For the same compound, in data set [3], the inhibition at 10 µM is 59.6 ± 2.73% and the inhibition at 30 µM came out at 96.42 ± 0.27%. For the same compound, in data set [4], the inhibition at 10 µM was found to be 30.4 ± 2.48% and the inhibition at 30 µM is 97.15 ± 0.21%. In data set [5], the inhibition at 10 µM was under 20% and the inhibition at 30 µM stood at 95.77 ± 0.26%. This compound returned a solubility (kinetic) at 2 h in data set [6] of 291 ± 35.5 µM (≈ 137 µg/mL). Moreover, in data set [7], the inhibition at 10 µM stood at 34.6 ± 2.98% and the inhibition at 30 µM stood at 95.8 ± 0.63%.

For the compound `COC(=O)[C@]1(C)CCC[C@@]2(C)C3CC[C@]4(O)C[C@@]3(CCC21)[C@@H](O)[C@]4(O)CN(C)Cc1ccccc1` (stereo partly drawn) [Compound 6, (4R,6aR,7R,8R,9S,11bS)-Methyl 8-((Benzyl(methyl)amino)methyl)-7,8,9-trihydroxy-4,11b-dimethyltetradecahydro-6a,9-methanocyclohepta[a]naphthalene-4-carboxylate], the melting point was in the range of 162 to 166 °C. In addition, in data set [1], the Papp at 4 h, 500 µM amounted to 0.23 ± 0.08 ×10⁻⁶ cm/s and the “PAMPA-GI MR (membrane retention)” value turned out to be 67.3 ± 8.6%. Also, in data set [2], the inhibition at 10 µM was under 20% and the inhibition at 30 µM is under 20%. Also, in data set [3], the inhibition at 10 µM was under 20% and the inhibition at 30 µM is 51.7 ± 2.54%. Besides, in data set [4], the inhibition at 10 µM is 25.7 ± 2.7% and the inhibition at 30 µM came to 63.7 ± 1.98%. Also, in data set [5], the inhibition at 10 µM was under 20% and the inhibition at 30 µM is under 20%. In data set [6], this compound had a kinetic solubility at 2 h of 114 ± 16 µM (≈ 55.5 µg/mL). In data set [7], the “Antiproliferative effect / selectivity on MDA-MB-231, in words” value is on record as “slight selectivity”; the inhibition at 10 µM was under 20%; the inhibition at 30 µM is 82.56 ± 0.69%.

For `COC(=O)[C@]1(C)CCC[C@@]2(C)C3CC[C@]4(O)C[C@@]3(CCC21)[C@@H](O)[C@]4(O)CNCc1ccc(F)cc1` (stereo partly drawn) [Compound 9, (4R,6aR,7R,8R,9S,11bS)-Methyl 8-(((4-Fluorobenzyl)amino)methyl)-7,8,9-trihydroxy-4,11b-dimethyltetradecahydro-6a,9-methanocyclohepta[a]naphthalene-4-carboxylate], the melting point fell in the range of 195 to 197 °C. In data set [1], the Papp at 4 h, 500 µM was 0.4 ± 0.04 ×10⁻⁶ cm/s and the “PAMPA-GI MR (membrane retention)” value came out at 63.8 ± 4.9%. For the same compound, the “Antiproliferative effect on SiHa, in words” value in data set [2] (10 and 30 μM) is reported as “modest inhibition”. Further, in data set [2], the inhibition at 10 µM is 54.6 ± 3.42% and the inhibition at 30 µM was 95.17 ± 0.37%. For the same compound, in data set [3], the “Antiproliferative effect / selectivity on MCF-7, in words” value was “strong and selective antiproliferative effect; also recorded: performed best”; the inhibition at 10 µM turned out to be 96.4 ± 0.47%; the inhibition at 30 µM was determined as 96.19 ± 0.65%. Moreover, in data set [4], the inhibition at 10 µM was 45.6 ± 3.13% and the inhibition at 30 µM came to 96.97 ± 0.29%. In data set [5], the inhibition at 10 µM came out at 42.5 ± 1.42% and the inhibition at 30 µM is 96.8 ± 0.74%. Also, in data set [6], the “Kinetic aqueous solubility, category in words” value is on record as “moderate” and the kinetic solubility at 2 h is 42.1 ± 10.8 µM (≈ 20.6 µg/mL). Besides, in data set [7], the “Antiproliferative effect / selectivity on MDA-MB-231, in words” value is listed as “decent activity; also recorded: smaller but also selective antiproliferative effect”; the inhibition at 10 µM was determined as 83 ± 1.71%; the inhibition at 30 µM turned out to be 93.63 ± 0.36%.

Turning to `CC[C@@H](NC[C@@]1(O)[C@H](O)[C@@]23CCC4[C@@](C)(CCC[C@@]4(C)C(=O)OC)C2CC[C@]1(O)C3)c1ccccc1` (stereo partly drawn) [Compound 15, (4R,6aR,7R,8R,9S,11bS)-Methyl 7,8,9-Trihydroxy-4,11b-dimethyl-8-((((R)-1-phenylpropyl)amino)methyl)tetradecahydro-6a,9-methanocyclohepta[a]naphthalene-4-carboxylate], the melting point was in the range of 138 to 141 °C. Also, in data set [1], the “Intestinal-specific permeability (Pe), category in words” value was “poor permeability”; the Papp at 4 h, 500 µM came to 0.14 ± 0.04 ×10⁻⁶ cm/s; the “PAMPA-GI MR (membrane retention)” value came to 46.8 ± 3.3%. In data set [2], the inhibition at 10 µM turned out to be 22.4 ± 1.42% and the inhibition at 30 µM stood at 95.67 ± 0.76%. In data set [3], the “Antiproliferative effect / selectivity on MCF-7, in words” value is “strong and selective antiproliferative effect; also recorded: performed best”; the inhibition at 10 µM came to 91 ± 1.52%; the inhibition at 30 µM amounted to 96.47 ± 0.26%. The “Antiproliferative effect on A2780, in words” value in data set [4] (10 and 30 μM) was “modest inhibition”. Also, in data set [4], the inhibition at 10 µM was 50 ± 2.99% and the inhibition at 30 µM came out at 96.64 ± 0.24%. In data set [5], the “Antiproliferative effect on HeLa, in words” value was “modest inhibition”; the inhibition at 10 µM came to 63.6 ± 1.54%; the inhibition at 30 µM turned out to be 97.25 ± 0.5%. Besides, the kinetic solubility at 2 h in data set [6] came to 145 ± 28.2 µM (≈ 72.5 µg/mL). Further, in data set [7], the “Antiproliferative effect / selectivity on MDA-MB-231, in words” value is listed as “decent activity; also recorded: smaller but also selective antiproliferative effect”; the inhibition at 10 µM came to 68.3 ± 2.86%; the inhibition at 30 µM was determined as 95.63 ± 0.45%.

The compound `CC[C@H](NC[C@@]1(O)[C@H](O)[C@@]23CCC4[C@@](C)(CCC[C@@]4(C)C(=O)OC)C2CC[C@]1(O)C3)c1ccccc1` (stereo partly drawn) [Compound 16, (4R,6aR,7R,8R,9S,11bS)-Methyl 7,8,9-Trihydroxy-4,11b-dimethyl-8-((((S)-1-phenylpropyl)amino)methyl)tetradecahydro-6a,9-methanocyclohepta[a]naphthalene-4-carboxylate] returned a melting point of 140 to 143 °C. Also, in data set [1], the “Intestinal-specific permeability (Pe), category in words” value is listed as “poor permeability”; the Papp at 4 h, 500 µM was determined as 0.25 ± 0.09 ×10⁻⁶ cm/s; the “PAMPA-GI MR (membrane retention)” value was determined as 44.6 ± 4.2%. Also, in data set [2], the inhibition at 10 µM was under 20% and the inhibition at 30 µM turned out to be 96.73 ± 0.65%. Also, in data set [3], the “Antiproliferative effect / selectivity on MCF-7, in words” value is on record as “higher selectivity; also recorded: performed best”; the inhibition at 10 µM came to 80.7 ± 2.37%; the inhibition at 30 µM was 97.1 ± 0.23%. Moreover, in data set [4], the inhibition at 10 µM is 48.3 ± 2.17% and the inhibition at 30 µM was 96.99 ± 0.19%. In data set [5], the “Antiproliferative effect on HeLa, in words” value is given as “moderate inhibition”; the inhibition at 10 µM came to 53.5 ± 1.99%; the inhibition at 30 µM is 98.33 ± 0.32%. Besides, in data set [6], the “Kinetic aqueous solubility, category in words” value is reported as “moderate” and the solubility (kinetic) at 2 h came to 89.9 ± 8.5 µM (≈ 44.9 µg/mL). For the same compound, in data set [7], the inhibition at 10 µM was 39.3 ± 1.99% and the inhibition at 30 µM stood at 96.65 ± 0.37%.
